For 23 compounds, CC50, EC50 and IC50 results are on record in patent US20240199647A1, “ANTI-VIRAL COMPOUNDS” (Aligos Therapeutics, Inc., priority 2022, published 2024).

Read-outs that look alike come from different tables or passages of the source.

One data set is described as follows: in vitro. The following applies: human.
The subject of data set [1] is SARS-CoV-2 B.1.1.7 lineage. The data set can be described thus: microbe, parasite or virus in culture. In kind it is cell-based. The following applies: Severe acute respiratory syndrome coronavirus 2, Table C, SARS-CoV-2 B.1.1.7 in A549-dual_ACE2_TMPRSS2 cells, read-out: A549-dual_ACE2_TMPRSS2 (EC50).
In data set [2] the test system is human beta-coronavirus OC43. The data set is described as follows: OC43 Coronavirus Assay in HeLa cells (antiviral, cytopathic effect, cell-titer-glo). The format is cell-based. The following applies: Betacoronavirus 1, OC43, HeLa, Table B, OC43 coronavirus in HeLa cells, read-out: EC50.
Another data set deals with SARS-Cov-2 3CLpro (Severe acute respiratory syndrome coronavirus 2, UniProt P0DTD1). The data set is described as follows: biochemical. To be noted: Table A, class symbols, read-out: SARS-Cov-2 (IC50).
Data set [3] is described as follows: Cytotoxicity in HeLa cells without addition of OC43 virus (in parallel). To be noted: human, HeLa cells, without OC43 virus.

`CN(C(=O)[C@H](CC1CC1)NC(=O)C(F)(F)F)[C@@H](CC1CC1)C(=O)N1C[C@@]2(C[C@H]1C#N)Oc1c(F)cc(F)cc1CNC2=O` [Compound 199] registered a CC50 in the data set “in vitro” above 1000 nM. Further, the EC50 in data set [1] (class symbols) is 100 to 1000 nM; in data set [2] (class symbols), below 100 nM. Moreover, the half-inhibitory concentration (IC50) on SARS-Cov-2 3CLpro is below 20 nM. Besides, the CC50 at 6 days in data set [3] is above 10000 nM.
For `C[C@H](NC(=O)C(F)(F)F)C(=O)N(C)[C@@H](CC1(C)CC1)C(=O)N1C[C@@]2(C[C@H]1C#N)Oc1cccnc1NC2=O` [Compound 183], in that order: above 1000 nM, 100 to 1000 nM, below 100 nM, below 20 nM and above 10000 nM.
For `CN(C(=O)[C@@H](Cc1ccc(F)cc1)NC(=O)C(F)(F)F)[C@@H](CC1CC1)C(=O)N1C[C@@]2(C[C@H]1C#N)Oc1cccnc1NC2=O` [Compound 200], in that order: above 1000 nM, below 100 nM, 100 to 1000 nM, below 20 nM and above 10000 nM.
The like results for `COC(=O)N[C@@H](CC1CC1)C(=O)N(C)[C@@H](CC1CC1)C(=O)N1C[C@@]2(C[C@H]1C#N)Oc1ccccc1CNC2=O` [Compound 139] were, in that order, above 1000 nM, 100 to 1000 nM, below 100 nM, below 20 nM and above 10000 nM.
For the compound `C[C@H](NC(=O)OC1CC1)C(=O)N(C)[C@@H](CC1CC1)C(=O)N1C[C@@]2(C[C@H]1C#N)Oc1cccnc1NC2=O` [Compound 219], the CC50 in “in vitro” was above 1000 nM. Besides, the 50% effective concentration (EC50) is 100 to 1000 nM in data set [1] (class symbols) and below 100 nM in data set [2] (class symbols). Besides, the IC50 on SARS-Cov-2 3CLpro was below 20 nM. The CC50 at 6 days in data set [3] was above 10000 nM.
For `CN(C(=O)[C@H](CC1CC1)NC(=O)C1(F)CC1)[C@@H](CC1CC1)C(=O)N1C[C@@]2(CC1C#N)Oc1ccccc1CNC2=O` (stereo partly shown) [Compound 176], in that order: above 1000 nM, below 100 nM, below 100 nM, below 20 nM and above 10000 nM.
For `CN(C(=O)[C@H](CC(F)(F)F)NC(=O)C(F)(F)F)[C@@H](CC1CC1)C(=O)N1C[C@@]2(C[C@H]1C#N)Oc1cc(F)cc(F)c1NC2=O` [Compound 85], in that order: above 1000 nM, below 100 nM, 100 to 1000 nM, below 20 nM and above 10000 nM.
The like results for `CN(C(=O)[C@H](CC1CC1)NC(=O)C(F)(F)F)[C@@H](CC1CC1)C(=O)N1C[C@@]2(C[C@H]1C#N)Oc1cccc(F)c1NC2=O` [Compound 56] were, in that order, above 1000 nM, below 100 nM, below 100 nM, below 20 nM and above 10000 nM.
In turn, `C[C@H](NC(=O)C(F)(F)Cl)C(=O)N(C)[C@@H](CC1CC1)C(=O)N1C[C@@]2(CC1C#N)Oc1cccnc1NC2=O` (stereo partly shown) [Compound 174] had a CC50 in the data set “in vitro” above 1000 nM. Besides, the half-maximal effective concentration (EC50) in data set [1] (class symbols) and in data set [2] (class symbols) was below 100 nM each time. For the same compound, the IC50 on SARS-Cov-2 3CLpro was below 20 nM. Further, the CC50 at 6 days in data set [3] was above 10000 nM.
Compound `CC(C)C[C@@H](C(=O)N1C[C@@]2(C[C@H]1C#N)CC(C)(C)NC2=O)N(C)C(=O)[C@H](C)NC(=O)C(F)(F)F` [Compound 22] had a CC50 in the data set “in vitro” above 1000 nM. Further, the EC50 in data set [1] (cells given as a bound) is above 1000 nM; in data set [2] (class symbols), 1000 to 10000 nM. Moreover, the half-inhibitory concentration (IC50) on SARS-Cov-2 3CLpro fell in the range of 20 to 200 nM. The CC50 at 6 days in data set [3] is above 10000 nM.
Compound `CC(C)C[C@@H](C(=O)N1C[C@@]2(C[C@H]1C#N)Oc1cc(F)cc(F)c1NC2=O)N(C)C(=O)[C@H](CC(C)(C)F)NC(=O)C(F)(F)F` [Compound 64] had a CC50 in the data set “in vitro” above 1000 nM. Besides, the EC50 is 100 to 1000 nM in data set [1] (class symbols) and below 100 nM in data set [2] (class symbols). Further, on SARS-Cov-2 3CLpro, the IC50 is below 20 nM. In data set [3], the CC50 at 6 days was above 10000 nM.
For `CCC1C[C@@]2(C[C@@H](C#N)N(C(=O)[C@H](CC(C)C)N(C)C(=O)[C@H](C)NC(=O)C(F)(F)F)C2)C(=O)N1` (stereo partly shown) [Compound 23], in that order: above 1000 nM, 100 to 1000 nM, 100 to 1000 nM, below 20 nM and above 10000 nM.
With `CN(C(=O)[C@H](CC1CC(F)(F)C1)NC(=O)C(F)(F)F)[C@@H](CC1CC1)C(=O)N1C[C@@]2(C[C@H]1C#N)Oc1cccnc1NC2=O` [Compound 187], the CC50 in “in vitro” is above 1000 nM. The EC50 in data set [1] (class symbols) was 100 to 1000 nM; in data set [2] (class symbols), below 100 nM. Besides, the IC50 at SARS-Cov-2 3CLpro is below 20 nM. In data set [3], this compound showed a CC50 at 6 days above 10000 nM.
In the data set “in vitro”, `Cc1ccc2c(n1)O[C@@]1(C[C@@H](C#N)N(C(=O)[C@H](CC3CC3)N(C)C(=O)[C@H](CC3CC3)NC(=O)C(F)(F)F)C1)C(=O)N2` [Compound 227, (S)—N—((S)-1-((3R,5'S)-5′-cyano-6-methyl-2-oxo-1,2-dihydrospiro[pyrido[2,3-b][1,4]oxazine-3,3′-pyrrolidin]-1′-yl)-3-cyclopropyl-1-oxopropan-2-yl)-3-cyclopropyl-N-methyl-2-(2,2,2-trifluoroacetamido)propanamide] registered a CC50 above 1000 nM. For the same compound, the values for the half-maximal effective concentration (EC50) in data set [1] (class symbols) and in data set [2] (class symbols) were 100 to 1000 nM and below 100 nM, respectively. The IC50 at SARS-Cov-2 3CLpro was below 20 nM. The compound further returned a CC50 at 6 days in data set [3] above 10000 nM.
Take `CN(C(=O)c1cc2c(F)cc(F)c(F)c2[nH]1)[C@@H](CC1CC1)C(=O)N1C[C@@]2(C[C@H]1C#N)Oc1ccccc1CNC2=O` [Compound 140]: the CC50 in “in vitro” was above 1000 nM. In addition, the concentration giving a half-maximal response (EC50) in data set [1] (class symbols) and in data set [2] (class symbols) was below 100 nM throughout. Moreover, at SARS-Cov-2 3CLpro, the half-maximal inhibitory concentration (IC50) was below 20 nM. The compound further came in with a CC50 at 6 days in data set [3] above 10000 nM.
In the case of `CN(C(=O)[C@H](CC1CC1)NC(=O)C(F)(F)F)[C@@H](CC1CC1)C(=O)N1C[C@@]2(C[C@H]1C#N)Oc1ccccc1CNC2=O` [Compound 81, (S)—N—((S)-1-((2R,5'S)-5′-cyano-3-oxo-4,5-dihydro-3H-spiro[benzo[f][1,4]oxazepine-2,3′-pyrrolidin]-1′-yl)-3-cyclopropyl-1-oxopropan-2-yl)-3-cyclopropyl-N-methyl-2-(2,2,2-trifluoroacetamido)propenamide], the CC50 in the data set “in vitro” is above 1000 nM. The 50% effective concentration (EC50) in data set [1] (class symbols) and in data set [2] (class symbols) was below 100 nM in each case. For the same compound, the 50% inhibitory concentration (IC50) on SARS-Cov-2 3CLpro is below 20 nM. Besides, in data set [3], the CC50 at 6 days is above 10000 nM.
`CN(C(=O)[C@H](CC1CC1)NC(=O)C(F)(F)F)[C@@H](CC1CC1)C(=O)N1C[C@]2(C[C@H]1C#N)C(=O)Nc1ccccc1S2(=O)=O` [Compound 82] yielded a CC50 in the data set “in vitro” above 1000 nM. For the same compound, the 50% effective concentration (EC50) was above 1000 nM in data set [1] (cells given as a bound) and 100 to 1000 nM in data set [2] (class symbols). Besides, on SARS-Cov-2 3CLpro, the IC50 is 20 to 200 nM. Further, in data set [3], the CC50 at 6 days is above 10000 nM.
For `CN(C(=O)C(C)(C)NC(=O)C(F)(F)F)[C@@H](CC1CC1)C(=O)N1C[C@@]2(C[C@H]1C#N)Oc1cc(F)cc(F)c1NC2=O` [Compound 92], the CC50 in “in vitro” is above 1000 nM. Also, the EC50 in data set [1] (class symbols) and in data set [2] (class symbols) was below 100 nM in each case. Also, the IC50 at SARS-Cov-2 3CLpro was 200 to 2000 nM. Further, the CC50 at 6 days in data set [3] is above 10000 nM.
As to `CN(C(=O)C(O)C(C)(C)C)[C@@H](CC1CC1)C(=O)N1C[C@@]2(C[C@H]1C#N)Oc1cc(F)cc(F)c1NC2=O` (stereo partly shown) [Compound 138], the CC50 in the data set “in vitro” is above 1000 nM. Further, the half-maximal effective concentration (EC50) in data set [1] (class symbols) and in data set [2] (class symbols) was 100 to 1000 nM throughout. For the same compound, the IC50 on SARS-Cov-2 3CLpro was below 20 nM. In addition, the CC50 at 6 days in data set [3] was above 10000 nM.
`CN(C(=O)[C@H](CC1CC1)NC(=O)C(F)(F)F)[C@@H](CC1CC1)C(=O)N1C[C@@]2(C[C@H]1C#N)Oc1cc(F)ccc1CNC2=O` [Compound 142] registered a CC50 in the data set “in vitro” above 1000 nM. Further, the EC50 in data set [1] (class symbols) and in data set [2] (class symbols) was below 100 nM throughout. Also, the 50% inhibitory concentration (IC50) at SARS-Cov-2 3CLpro was below 20 nM. The same compound registered a CC50 at 6 days in data set [3] above 10000 nM.
Turning to `Cc1nnn(C(CC2CC2)C(=O)N(C)[C@@H](CC2CC2)C(=O)N2C[C@@]3(C[C@H]2C#N)Oc2cc(F)cc(F)c2NC3=O)c1C` (relative stereo) [Compound 117, (S*)—N—((S)-1-((2R,5'S)-5′-cyano-5,7-difluoro-3-oxo-3,4-dihydrospiro[benzo[b][1,4]oxazine-2,3′-pyrrolidin]-1′-yl)-3-cyclopropyl-1-oxopropan-2-yl)-3-cyclopropyl-2-(4,5-dimethyl-1H-1,2,3-triazol-1-yl)-N-methylpropanamide], the CC50 in the data set “in vitro” was above 1000 nM. Moreover, the values for the EC50 in data set [1] (cells given as a bound) and in data set [2] (cells given as a bound) were above 1000 nM and above 10000 nM, respectively. Further, the 50% inhibitory concentration (IC50) at SARS-Cov-2 3CLpro is 200 to 2000 nM. This compound showed a CC50 at 6 days in data set [3] above 10000 nM.
`C[C@H](OCc1ccccc1)[C@H](NC(=O)C(F)(F)F)C(=O)N(C)[C@@H](CC1CC1)C(=O)N1C[C@@]2(C[C@H]1C#N)Oc1cccnc1NC2=O` [Compound 192] registered a CC50 in the data set “in vitro” above 1000 nM. For the same compound, the EC50 in data set [1] (class symbols) and in data set [2] (class symbols) was 100 to 1000 nM throughout. At SARS-Cov-2 3CLpro, the half-maximal inhibitory concentration (IC50) lay within 20 to 200 nM. Besides, in data set [3], the CC50 at 6 days was above 10000 nM.
Consider `CC[C@H](NC(=O)C(F)(F)F)C(=O)N(C)[C@@H](CC1CC1)C(=O)N1C[C@@]2(C[C@H]1C#N)Oc1cc(F)cc(F)c1NC2=O` [Compound 88], for which the CC50 in the data set “in vitro” is above 1000 nM. Further, the EC50 in data set [1] (class symbols) is below 100 nM; in data set [2] (class symbols), 100 to 1000 nM. Besides, on SARS-Cov-2 3CLpro, the IC50 is below 20 nM. Further, the CC50 at 6 days in data set [3] is above 10000 nM.
